According to publication PMC7265429, “Characterization of a new small-molecule inhibitor of HDAC6 in glioblastoma” (Cell Death & Disease, 2020):

Test system: GNS166 cells
Test: Microarray whole-transcriptome gene expression analysis
Type: cell-based, human
Conditions: 5 µM SAHA vs DMSO
Protocol: Whole-transcriptome analysis was performed from 300 ng of RNA using HuGene-2_0-st-v1 expression array (Affymetrix), which covers 48,226 transcripts. Raw data were first checked for quality purposes through the Affymetrix® Expression Console™ Software v1.4.1 and TAC software v4.0. Then, data were normalized using the Robust Multi-array Average (RMA) and analyzed by Limma tool. Probesets with FDR-corrected p-values smaller than 0.05 were selected. Functional enrichment on Gene Ontology (GO) biological processes was performed on a smaller subset of the differentially expressed genes (corrected p-value < 0.001) by means of Broad Institute GSEA. […] The data that support this study have been deposited in NCBI´s Gene Expression Omnibus and are accessible through GEO series accession number GSE143887.

## O=C(CCCCCCC(=O)Nc1ccccc1)NO [SAHA, Suberoylanilide hydroxamic acid]
Transcript TC0400008424.hg.1
  logFC C4orf32: 1.313
Transcript TC0400008557.hg.1
  logFC USP53: 1.38
Transcript TC0400008628.hg.1
  logFC SPRY1: 1.671
Transcript TC0400008725.hg.1
  logFC PCDH10: 3.614
Transcript TC0400009068.hg.1
  logFC LRAT: 2.43
Transcript TC0400009088.hg.1
  logFC GUCY1B3: 2.131
Transcript TC0400009110.hg.1
  logFC GRIA2: 2.789
Transcript TC0400009376.hg.1
  logFC WDR17: 2.897
Transcript TC0400010449.hg.1
  logFC TLR10: 2.282
Transcript TC0400010618.hg.1
  logFC TEC: 1.822
Transcript TC0400010780.hg.1
  logFC SPINK2: 1.664
Transcript TC0400011130.hg.1
  logFC PAQR3: 1.64
Transcript TC0400011203.hg.1
  logFC HPSE: 1.993
Transcript TC0400011279.hg.1
  logFC ABCG2: 2.81
Transcript TC0400011732.hg.1
  logFC NDNF: 1.962
Transcript TC0400012375.hg.1
  logFC CBR4: 2.0355
Transcript TC0400012640.hg.1
  logFC CCDC110: 2.964
Transcript TC0400012781.hg.1
  logFC STIM2: 2.698
Transcript TC0400012782.hg.1
  logFC STIM2: 1.4133
Transcript TC0400012854.hg.1
  logFC TMEM144: 1.56
Transcript TC0400012992.hg.1
  logFC MFAP3L: 1.287
Transcript TC0500006744.hg.1
  logFC ROPN1L: 1.559
Transcript TC0500007044.hg.1
  logFC CDH6: 1.462
Transcript TC0500007792.hg.1
  logFC HEXB: 1.236
Transcript TC0500008055.hg.1
  logFC ADGRV1: 1.802
Transcript TC0500008233.hg.1
  logFC C5orf30: 1.583
Transcript TC0500010822.hg.1
  logFC ACTBL2: 3.506
Transcript TC0500010932.hg.1
  logFC SGTB: 1.8638
Transcript TC0500011418.hg.1
  logFC MEF2C: 3.2962
Transcript TC0500011513.hg.1
  logFC PCSK1: 2.7195
Transcript TC0500011579.hg.1
  logFC ST8SIA4: 2.463
Transcript TC0500011705.hg.1
  logFC NREP: 1.704
Transcript TC0500011775.hg.1
  logFC SEMA6A: 1.39
Transcript TC0500011935.hg.1
  logFC MARCH3: 1.4429
Transcript TC0500013155.hg.1
  logFC BASP1: 2.0101
Transcript TC0600006873.hg.1
  logFC BMP6: 2.494
Transcript TC0600007012.hg.1
  logFC CD83: 1.54
Transcript TC0600008166.hg.1
  logFC SLC25A27: 2.967
Transcript TC0600008262.hg.1
  logFC TMEM14A: 1.194
Transcript TC0600008486.hg.1
  logFC OGFRL1: 1.1708
Transcript TC0600009353.hg.1
  logFC TPD52L1: 1.7761
Transcript TC0600011065.hg.1
  logFC KIAA0319: 1.327
Transcript TC0600012059.hg.1
  logFC GSTA4: 1.152
Transcript TC0600012379.hg.1
  logFC ELOVL4: 1.597
Transcript TC0600012625.hg.1
  logFC GPR63: 1.5628
Transcript TC0600013186.hg.1
  logFC CTGF: 1.2152
Transcript TC0600013231.hg.1
  logFC SGK1: 2.01
Transcript TC0600013361.hg.1
  logFC CITED2: 1.453
Transcript TC0600014101.hg.1
  logFC MICA: 1.308
Transcript TC0600014241.hg.1
  logFC TBC1D7: 1.745
Transcript TC0600014300.hg.1
  logFC GCLC: 1.594
Transcript TC0700006735.hg.1
  logFC SCIN: 1.966
Transcript TC0700006783.hg.1
  logFC TSPAN13: 2.267
Transcript TC0700008261.hg.1
  logFC RUNDC3B: 2.108
Transcript TC0700008367.hg.1
  logFC PEG10: 1.87
Transcript TC0700008430.hg.1
  logFC SDHAF3: 2.085
Transcript TC0700008928.hg.1
  logFC CPED1: 1.813
Transcript TC0700010621.hg.1
  logFC FKBP14: 1.44
Transcript TC0700010965.hg.1
  logFC IGFBP3: 3.673
Transcript TC0700011655.hg.1
  logFC PCLO: 1.736
Transcript TC0700011809.hg.1
  logFC TFPI2: 1.387
Transcript TC0700012276.hg.1
  logFC DOCK4: 2.262
Transcript TC0700013050.hg.1
  logFC KCNH2: 1.762
Transcript TC0800007057.hg.1
  logFC DOCK5: 2.096
Transcript TC0800007697.hg.1
  logFC CHCHD7: 1.373
Transcript TC0800007985.hg.1
  logFC GDAP1: 1.791
Transcript TC0800008044.hg.1
  logFC STMN2: 3.942
Transcript TC0800008124.hg.1
  logFC CA3: 3.677
Transcript TC0800008126.hg.1
  logFC CA2: 1.801
Transcript TC0800009891.hg.1
  logFC STC1: 3.859
Transcript TC0800010045.hg.1
  logFC TEX15: 3.073
Transcript TC0800010224.hg.1
  logFC ZMAT4: 2.513
Transcript TC0800011620.hg.1
  logFC ENPP2: 1.943
Transcript TC0800012396.hg.1
  logFC FBXO16: 1.919
Transcript TC0900006522.hg.1
  logFC SLC1A1: 1.427
Transcript TC0900006559.hg.1
  logFC CD274: 1.67
Transcript TC0900008425.hg.1
  logFC ZNF483: 1.1693
Transcript TC0900009145.hg.1
  logFC OLFM1: 2.218
Transcript TC0900009673.hg.1
  logFC MLLT3: 1.64
Transcript TC0900010445.hg.1
  logFC NMRK1: 1.539
Transcript TC0900010737.hg.1
  logFC DIRAS2: 1.619
Transcript TC0900010933.hg.1
  logFC CTSV: 2.165
Transcript TC0900011379.hg.1
  logFC MEGF9: 1.37
Transcript TC1000007714.hg.1
  logFC PHYHIPL: 2.12
Transcript TC1000008798.hg.1
  logFC SFR1: 1.8477
Transcript TC1000009920.hg.1
  logFC VIM-AS1: 1.211
Transcript TC1000010827.hg.1
  logFC DNAJC12: 2.378
Transcript TC1000011420.hg.1
  logFC CPEB3: 1.535
Transcript TC1000012536.hg.1
  logFC MPP7: 1.855
